How the values were obtained:
[1] = system: Setaria viridis; assay: Post-emergence herbicidal action; assay type: in vivo; conditions: Setaria viridis, 504 h, 320 g/ha, about 3 weeks after treatment, read-out: Setaria viridis, herbicidal activity rated visually
Description: (§1) Seeds of monocotyledonous and dicotyledonous weeds and crop plants were placed in sandy loam in plastic or wood-fiber pots, covered with soil and cultivated in a greenhouse under controlled growth conditions. 2 to 3 weeks after sowing, the test plants were treated at the one-leaf stage. The compounds of the invention, formulated in the form of wettable powders (WP) or as emulsion concentrates (EC), were then sprayed onto the green parts of the plants as aqueous suspension or emulsion with addition of 0.5% additive at a water application rate of 600 l/ha (converted). After the test plants had been kept in the greenhouse under optimum growth conditions for about 3 weeks, the activity of the preparations was rated visually in comparison to untreated controls. For example, 100% activity=the plants have died, 0% activity=like control plants. Tables A1 to A12 below show the effects of selected compounds of the general formula (I) according to Tables I.1 to I.44 on various harmful plants and an application rate corresponding to 1280 g/ha or 320 g/ha, which were obtained by the experimental procedure mentioned above.

[2] = system: Stellaria media; assay: Post-emergence herbicidal action; assay type: in vivo; conditions: about 3 weeks after treatment
Description: as §1

[3] = system: Viola tricolor; assay: Post-emergence herbicidal action; assay type: in vivo; conditions: 504 h, 320 g/ha, about 3 weeks after treatment, read-out: Viola tricolor, herbicidal activity rated visually
Description: as §1

[4] = system: Matricaria inodora; assay: Pre-emergence herbicidal action; assay type: in vivo; conditions: 1280 g/ha, after about 3 weeks
From the text: (§2) Seeds of monocotyledonous and dicotyledonous weed plants and crop plants were placed in plastic or organic planting pots and covered with soil. The compounds of the invention, formulated in the form of wettable powders (WP) or as emulsion concentrates (EC), were then applied onto the surface of the covering soil as aqueous suspension or emulsion with addition of 0.5% additive at a water application rate of 600 l/ha (converted). After the treatment, the pots were placed in a greenhouse and kept under good growth conditions for the test plants. After about 3 weeks, the effect of the preparations was scored visually in comparison with untreated controls as percentages. For example, 100% activity=the plants have died, 0% activity=like control plants. Tables B1 to B15 below show the effects of selected compounds of the general formula (I) according to Tables I.1 to I.44 on various harmful plants and an application rate corresponding to 1280 g/ha or 320 g/ha, which were obtained by the experimental procedure mentioned above.

[5] = system: Stellaria media; assay: Pre-emergence herbicidal action; assay type: in vivo; conditions: after about 3 weeks
From the text: as §2

[6] = system: Viola tricolor; assay: Pre-emergence herbicidal action; assay type: in vivo; conditions: Viola tricolor, 504 h, 320 g/ha, after about 3 weeks, read-out: Viola tricolor, herbicidal effect scored visually
From the text: as §2

[7] = molecular target: T1, photosystem II (PS II) (Spinacia oleracea, UniProt P69560); assay: Measurement of the PS II activity in thylakoid membranes (DCPIP reduction); assay type: biochemical; conditions: 100 μM test compound, spinach thylakoid membranes, DCPIP 120 μM, 10 min at 22° C. with exposure to light; for inhibition at 100 µM (stock): read-out: Effect (inhibition of PS II activity)
T1 construct: the chloroplasts were osmotically ruptured and the thylakoid membranes were then obtained by centrifugation; from tissue; host or cells: fresh spinach leaves; thylakoid membranes isolated from chloroplasts
Description: Cooled fresh spinach leaves were comminuted and homogenized in 50 mM phosphate buffer, pH 6.8. 10 mM KCl, 0.34 M sucrose (sucrose buffer) (blender, 1 g of plant material/ml). The homogenate was subsequently filtered through 4 layers of Miracloth and the chloroplasts were isolated by centrifugation, i.e. 10 min of centrifugation at 4400×g (4° C.). The sediment was suspended in 25 ml of sucrose buffer and re-centrifuged for 10 min at 4400×g (4° C.). The sediment was then suspended in 40 ml of 50 mM phosphate buffer, pH 6.8, 10 mM KCl, without sucrose. In this step, the chloroplasts were osmotically ruptured and the thylakoid membranes were then obtained by centrifugation (10 min, 4400×g, 4° C.). The membrane sediment was finally suspended in 20 ml of 50 mM phosphate buffer, pH 6.8, 10 mM KCl. Following protein determination and activity determination, the membrane suspension was divided into aliquots and frozen in liquid nitrogen. The aliquots were stored at −80° C. Under these conditions, the photosystem II preparation was storage stable for at least three months. The activity determination of photosystem II (PS II) was then carried out using the following test principle:
The electron transfer from PS II to an artificial electron acceptor, 2,6-dichlorophenolindophenol (DCPIP), was measured with exposure to light. The concentration of the blue oxidized form of DCPIP was determined spectrophotometrically at wavelength λ=595 nm. […] The activity determination was carried out in microtiter plates (96 cavities) in a reaction volume of 200 μl. Here, 155 μl of dilute membrane suspension were initially charged in 50 mM of phosphate buffer, pH 6.8, 10 mM KCl. Depending on the activity of the PS II preparation, the dilution was adjusted such that the measurement of the decrease in absorption (λ=595 nm) was linear for at least 10 min. In each case 5 μl solution of the test compounds of a concentration of 100 μM in DMSO were added to the enzyme suspension; controls contained 5 μl DMSO; the final concentration of DMSO in the reaction batch was thus 2.5% (v/v); this concentration had no adverse effect on the enzymatic activity. On each microtiter plate, a known PS II inhibitor, for example metribuzin, was used as standard, which allowed the quality of the PS II test to be assessed. The reaction was started by addition of 40 μl DCPIP solution (600 μM in distilled water); the final concentration of DCPIP was 120 μM. Measurement of absorption was carried out over a period of 10 min at 22° C. and with exposure to light. Using metribuzin as comparative substance, the results for the efficacy of the compounds of the general formula (I) at 100 μM are stated in the table below using the following classification: ++++ (inhibition≥90%), +++ ([…]≥70%), ++ (70%>inhibition≥50%), + (50%>inhibition≥30%).

[8] = system: Abutilon theophrasti; assay: Post-emergence herbicidal action; assay type: in vivo; conditions: 320 g/ha, about 3 weeks after treatment
Description: as §1

[9] = system: Poa annua; assay: Pre-emergence herbicidal action; assay type: in vivo; conditions: 1280 g/ha, after about 3 weeks
From the text: as §2

[10] = system: Setaria viridis; assay: Pre-emergence herbicidal action; assay type: in vivo; conditions: 1280 g/ha, after about 3 weeks
From the text: as §2

[11] = system: Amaranthus retroflexus; assay: Post-emergence herbicidal action; assay type: in vivo; conditions: 320 g/ha, about 3 weeks after treatment
Description: as §1

Structure (SMILES): CCc1nsc(N2C(=O)C(C)=C(C)C2O)n1 (centres unmarked) [I.2-3, 3,4-Dimethyl-5-hydroxy-1-(3-ethyl-1,2,4-thiadiazol-5-yl)-1,5-dihydro-2H-pyrrol-2-one]
- pest or weed control at 320 g/ha [1]: 80%
- pest or weed control at 320 g/ha ([2]; Stellaria media, 504 h, 320 g/ha, read-out: Stellaria media, herbicidal activity rated visually): 80%
- pest or weed control at 320 g/ha [3]: 100%
- pest or weed control at 1280 g/ha ([4]; Tripleurospermum inodorum, 504 h, read-out: Matricaria inodora, herbicidal effect scored visually): 100%
- pest or weed control at 320 g/ha ([5]; Stellaria media, 504 h, 320 g/ha, read-out: Stellaria media, herbicidal effect scored visually): 90%
- pest or weed control at 320 g/ha [6]: 100%
- inhibition at 100 µM (stock) [7]: > 90%

Structure (SMILES): CC1=C(C)C(O)N(c2nc(-c3ccccc3)ns2)C1=O (centres unmarked) [I.2-21]
- Abutilon theophrasti, herbicidal activity rated visually [8]: 100%
- Matricaria inodora, herbicidal effect scored visually [4]: 90%
- Poa annua, herbicidal effect scored visually [9]: 90%
- Stellaria media, herbicidal effect scored visually ([5]; 1280 g/ha): 100%
- Effect (inhibition of PS II activity) [7]: +++ (90%≥inhibition≥70%)

Structure (SMILES): COc1ccc(-c2nsc(N3C(=O)C(C)=C(C)C3O)n2)cc1 (centres unmarked) [I.2-83]
- Effect (inhibition of PS II activity) [7]: ++++ (inhibition≥90%)

Structure (SMILES): COCc1nsc(N2C(=O)C(C)=C(C)C2O)n1 (centres unmarked) [I.2-122, 3,4-Dimethyl-5-hydroxy-1-(3-methoxymethyl-1,2,4-thiadiazol-5-yl)-1,5-dihydro-2H-pyrrol-2-one]
- inhibition at 100 µM (stock) [7]: 50 to 70%

Structure (SMILES): CC1=C(C)C(O)N(c2nc(C(C)(C)C)ns2)C1=O (centres unmarked) [I.2-288]
- Matricaria inodora, herbicidal effect scored visually [4]: 90%
- Poa annua, herbicidal effect scored visually [9]: 90%
- Setaria viridis, herbicidal effect scored visually [10]: 100%
- Stellaria media, herbicidal effect scored visually ([5]; 1280 g/ha): 100%
- Effect (inhibition of PS II activity) [7]: +++ (90%≥inhibition≥70%)

Structure (SMILES): CSc1nsc(N2C(=O)C(C)=C(C)C2O)n1 (centres unmarked) [I.2-303]
- Abutilon theophrasti, herbicidal activity rated visually [8]: 100%
- Amaranthus retroflexus, herbicidal activity rated visually [11]: 100%
- Stellaria media, herbicidal activity rated visually ([2]; 1280 g/ha): 100%
- Matricaria inodora, herbicidal effect scored visually [4]: 100%
- Poa annua, herbicidal effect scored visually [9]: 90%
- Stellaria media, herbicidal effect scored visually ([5]; 1280 g/ha): 100%
- Effect (inhibition of PS II activity) [7]: +++ (90%≥inhibition≥70%)

Structure (SMILES): CC1=C(C)C(O)N(c2nc(C3(C)CC3)ns2)C1=O (centres unmarked) [I.2-335]
- Effect (inhibition of PS II activity) [7]: ++++ (inhibition≥90%)

Structure (SMILES): CC1=C(C)C(O)N(c2nc(SCCOC(F)(F)C(F)(F)F)ns2)C1=O (centres unmarked) [I.2-339]
- Effect (inhibition of PS II activity) [7]: ++++ (inhibition≥90%)

Structure (SMILES): CCCc1nsc(N2C(=O)C(Cl)=C(C)C2O)n1 (centres unmarked) [I.3-4]
- Effect (inhibition of PS II activity) [7]: ++++ (inhibition≥90%)

Structure (SMILES): COCc1nsc(N2C(=O)C(Cl)=C(C)C2O)n1 (centres unmarked) [I.3-122]
- Effect (inhibition of PS II activity) [7]: +++ (90%≥inhibition≥70%)

Structure (SMILES): CC1=C(Cl)C(=O)N(c2nc(C3(C)CC3)ns2)C1O (centres unmarked) [I.3-335, 3-Chloro-4-methyl-5-hydroxy-1-[3-(1-methylcycloprop-1-yl)-1,2,4-thiadiazol-5-yl]-1,5-dihydro-2H-pyrrol-2-one]
- inhibition at 100 µM (stock) [7]: > 90%

Structure (SMILES): CC1=C(Cl)C(O)N(c2nc(C)ns2)C1=O (centres unmarked) [I.4-2]
- Effect (inhibition of PS II activity) [7]: +++ (90%≥inhibition≥70%)

Structure (SMILES): CCc1nsc(N2C(=O)C(C)=C(Cl)C2O)n1 (centres unmarked) [I.4-3]
- Effect (inhibition of PS II activity) [7]: ++++ (inhibition≥90%)

Structure (SMILES): CCCc1nsc(N2C(=O)C(C)=C(Cl)C2O)n1 (centres unmarked) [I.4-4]
- Effect (inhibition of PS II activity) [7]: ++++ (inhibition≥90%)

Structure (SMILES): CC1=C(Cl)C(O)N(c2nc(C3CC3)ns2)C1=O (centres unmarked) [I.4-11, 4-chloro-3-methyl-5-hydroxy-1-(3-cyclopropyl-1,2,4-thiadiazol-5-yl)-1,5-dihydro-2H-pyrrol-2-one]
- inhibition at 100 µM (stock) [7]: > 90%

Structure (SMILES): CC1=C(Cl)C(O)N(c2nc(C3(C)CC3)ns2)C1=O (centres unmarked) [I.4-335, 4-chloro-3-methyl-5-hydroxy-1-[3-(1-methylcycloprop-1-yl)-1,2,4-thiadiazol-5-yl]-1,5-dihydro-2H-pyrrol-2-one]
- inhibition at 100 µM (stock) [7]: 50 to 70%

Structure (SMILES): COc1nsc(N2C(=O)C(C)=C(Cl)C2O)n1 (centres unmarked) [I.4-363]
- Effect (inhibition of PS II activity) [7]: ++++ (inhibition≥90%)

Structure (SMILES): COC(C)(C)c1nsc(N2C(=O)C(C)=C(Cl)C2O)n1 (centres unmarked) [I.4-370, 4-Chloro-3-methyl-5-hydroxy-1-[3-(2-methoxyprop-2-yl)-1,2,4-thiadiazol-5-yl]-1,5-dihydro-2H-pyrrol-2-one]
- pest or weed control at 1280 g/ha ([5]; Stellaria media, 504 h, 1280 g/ha, read-out: Stellaria media, herbicidal effect scored visually): 100%

Structure (SMILES): CCc1nsc(N2C(=O)C(Br)=C(C)C2O)n1 (centres unmarked) [I.5-3]
- Effect (inhibition of PS II activity) [7]: ++++ (inhibition≥90%)

Structure (SMILES): CCCc1nsc(N2C(=O)C(Br)=C(C)C2O)n1 (centres unmarked) [I.5-4]
- Effect (inhibition of PS II activity) [7]: ++++ (inhibition≥90%)

Structure (SMILES): CCc1nsc(N2C(=O)C(C)=C(Br)C2O)n1 (centres unmarked) [I.6-3]
- Effect (inhibition of PS II activity) [7]: ++++ (inhibition≥90%)

Structure (SMILES): CCCc1nsc(N2C(=O)C(C)=C(Br)C2O)n1 (centres unmarked) [I.6-4]
- Effect (inhibition of PS II activity) [7]: ++++ (inhibition≥90%)

Structure (SMILES): CC1=C(Br)C(O)N(c2nc(C3CC3)ns2)C1=O (centres unmarked) [I.6-11]
- Effect (inhibition of PS II activity) [7]: ++++ (inhibition≥90%)

Structure (SMILES): O=C1C(Cl)=C(C2CCCCC2)C(O)N1c1nc(C2CC2)ns1 (centres unmarked) [I.9-11]
- Effect (inhibition of PS II activity) [7]: ++ (70%>inhibition≥50%)

Structure (SMILES): CC(C)c1nsc(N2C(=O)C(C3CCCCC3)=C(Cl)C2O)n1 (centres unmarked) [I.10-5]
- Effect (inhibition of PS II activity) [7]: +++ (90%≥inhibition≥70%)

Structure (SMILES): CCc1nsc(N2C(=O)N(C)CC2O)n1 (centres unmarked) [I.13-3]
- Effect (inhibition of PS II activity) [7]: +++ (90%≥inhibition≥70%)

Structure (SMILES): CN1CC(O)N(c2nc(C(C)(C)C)ns2)C1=O (centres unmarked) [I.13-288]
- Effect (inhibition of PS II activity) [7]: ++ (70%>inhibition≥50%)
